Data as given in ChEMBL document CHEMBL4304797, “Discovery of GSK2798745: A Clinical Candidate for Inhibition of Transient Receptor Potential Vanilloid 4 (TRPV4)” (ACS Med Chem Lett, 2019).

Assays:
[1] = target: Transient receptor potential cation channel subfamily V member 4 (Homo sapiens, UniProt Q9HBA0); assay: Inhibition of human TRPV4 expressed in baculovirus infected HEK/MSR 2 cells pre-incubated for 10 mins followed by GSK634775A addition by Fura-2 dye based FLIPR assay
[2] = Mean residence time in Sprague-Dawley rat at 1 mg/kg, iv measured after 24 hrs by HPLC-MS/MS analysis; type: ADME, organism-based; settings: in vivo
[3] = Clearance in Sprague-Dawley rat at 1 mg/kg, iv measured after 24 hrs by HPLC-MS/MS analysis; type: ADME, organism-based; settings: in vivo
[4] = Volume of distribution at steady state in Sprague-Dawley rat at 1 mg/kg, iv measured after 24 hrs by HPLC-MS/MS analysis; type: ADME, organism-based; settings: in vivo, read-out: Vdss
[5] = Oral bioavailability in Sprague-Dawley rat at 2 mg/kg measured after 24 hrs by HPLC-MS/MS analysis; type: ADME, organism-based; settings: in vivo
[6] = Unbound fraction in Sprague-Dawley rat plasma; type: ADME, cell-free
[7] = Unbound clearance in Sprague-Dawley rat; type: ADME; settings: in vivo
[8] = Lipophilicity, chromatographic logD of compound at pH 7.4; settings: buffer
[9] = target: Transient receptor potential cation channel subfamily V member 4 (Rattus norvegicus, UniProt Q9ERZ8); assay: Inhibition of rat TRPV4 expressed in baculovirus infected HEK/MSR 2 cells pre-incubated for 10 mins followed by GSK634775A addition by Fura-2 dye based FLIPR assay
[10] = Unbound volume of distribution at steady state in Sprague-Dawley rat; type: ADME; settings: in vivo

Sequence of Transient receptor potential cation channel subfamily V member 4 (Homo sapiens, UniProt Q9HBA0) (Q9HBA0 whole entry): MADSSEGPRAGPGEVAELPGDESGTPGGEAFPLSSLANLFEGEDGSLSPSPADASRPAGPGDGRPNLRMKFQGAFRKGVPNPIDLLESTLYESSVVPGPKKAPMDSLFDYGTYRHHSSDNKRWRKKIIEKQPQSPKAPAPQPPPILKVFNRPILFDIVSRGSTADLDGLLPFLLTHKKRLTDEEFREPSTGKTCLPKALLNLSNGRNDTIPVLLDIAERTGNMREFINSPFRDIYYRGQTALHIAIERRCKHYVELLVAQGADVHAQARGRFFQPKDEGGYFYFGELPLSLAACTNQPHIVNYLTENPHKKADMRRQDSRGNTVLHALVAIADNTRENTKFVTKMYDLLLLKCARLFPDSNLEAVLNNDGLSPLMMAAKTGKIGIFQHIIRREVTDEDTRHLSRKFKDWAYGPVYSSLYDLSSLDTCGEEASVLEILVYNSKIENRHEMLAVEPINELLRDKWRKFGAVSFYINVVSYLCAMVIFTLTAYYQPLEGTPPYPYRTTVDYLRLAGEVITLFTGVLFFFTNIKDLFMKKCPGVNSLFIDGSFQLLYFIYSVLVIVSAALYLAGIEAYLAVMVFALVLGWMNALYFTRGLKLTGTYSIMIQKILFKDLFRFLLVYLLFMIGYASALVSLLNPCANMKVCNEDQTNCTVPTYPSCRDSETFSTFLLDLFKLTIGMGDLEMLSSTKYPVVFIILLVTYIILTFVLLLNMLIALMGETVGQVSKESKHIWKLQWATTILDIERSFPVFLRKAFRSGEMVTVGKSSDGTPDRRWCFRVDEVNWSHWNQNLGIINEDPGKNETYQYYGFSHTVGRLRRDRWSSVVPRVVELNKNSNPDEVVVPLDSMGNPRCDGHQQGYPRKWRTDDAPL
Sequence of Transient receptor potential cation channel subfamily V member 4 (Rattus norvegicus, UniProt Q9ERZ8) (Q9ERZ8 whole entry): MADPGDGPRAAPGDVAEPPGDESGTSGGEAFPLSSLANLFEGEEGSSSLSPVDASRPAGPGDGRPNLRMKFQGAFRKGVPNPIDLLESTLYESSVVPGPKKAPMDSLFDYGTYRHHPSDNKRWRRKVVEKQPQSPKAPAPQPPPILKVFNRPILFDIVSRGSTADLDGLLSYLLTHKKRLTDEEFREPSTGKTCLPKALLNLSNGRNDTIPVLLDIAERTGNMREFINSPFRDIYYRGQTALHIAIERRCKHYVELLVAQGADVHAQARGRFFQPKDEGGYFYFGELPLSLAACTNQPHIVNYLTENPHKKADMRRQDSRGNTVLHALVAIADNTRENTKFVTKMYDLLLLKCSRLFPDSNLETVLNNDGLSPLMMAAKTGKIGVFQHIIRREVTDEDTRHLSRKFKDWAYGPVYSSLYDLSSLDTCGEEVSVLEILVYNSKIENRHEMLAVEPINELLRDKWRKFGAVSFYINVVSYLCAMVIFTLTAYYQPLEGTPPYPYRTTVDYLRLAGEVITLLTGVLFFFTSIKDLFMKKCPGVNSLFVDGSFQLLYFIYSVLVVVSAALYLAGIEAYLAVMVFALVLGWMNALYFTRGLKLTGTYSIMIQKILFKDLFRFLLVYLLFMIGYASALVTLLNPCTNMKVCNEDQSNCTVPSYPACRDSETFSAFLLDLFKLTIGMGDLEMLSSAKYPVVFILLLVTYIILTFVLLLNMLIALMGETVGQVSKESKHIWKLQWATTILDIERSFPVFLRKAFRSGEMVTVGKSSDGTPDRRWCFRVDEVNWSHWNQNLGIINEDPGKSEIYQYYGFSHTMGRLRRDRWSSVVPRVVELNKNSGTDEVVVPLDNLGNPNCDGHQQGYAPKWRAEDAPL

Row | Structure (SMILES) | IC50 [1] [nM] | MRT [2] [h] | clearance [3] [mL/min/kg] | Vd [4] [L/kg] | bioavailability [5] [%] | fraction unbound [6] | CL free [7] [mL/min/kg] | ChromLogD [8] | IC50 [9] [nM] | Vduss [10] [L/kg]
1 | CCOc1cnc(N2C[C@@]3(CCC[C@](C)(Cn4cnc5ccc(C#N)cc54)C3)OC2=O)cn1 | 4.2 | 5.2 | 17 | 5.4 | 100 | 0.037 | 460 | 5.5 |  | 
2 | COc1ccccc1N1C[C@@]2(CCC[C@](C)(Cn3cnc4ccc(C#N)cc43)C2)OC1=O | 1.2 | 1 | 26 | 1.4 | 100 | 0.036 | 720 | 4.6 |  | 
3 | CCOc1ccc(N2C[C@@]3(CCC[C@H](Cn4cnc5ccc(C#N)cc54)C3)OC2=O)cc1 | 140 |  |  |  |  |  |  | 4.8 |  | 
4 | CCOc1ccc(N2C[C@@]3(CCC[C@](C)(Cn4cnc5ccc(C#N)cc54)C3)OC2=O)cc1 | 5.2 | 0.9 | 140 | 7.2 | 29 |  |  | 5.4 |  | 
5 | CCOc1ccc(N2C[C@@]3(CCC[C@](C)(Cn4cnc5ccc(C#N)cc54)C3)OC2=O)nn1 | 60 | 1.9 | 14 |  |  |  |  |  |  | 
6 | Cc1cnc(N2C[C@@]3(CCC[C@](C)(Cn4cnc5ccc(C#N)cc54)C3)OC2=O)cn1 | 60 |  |  |  |  |  |  | 4.2 |  | 
7 | N#Cc1ccc2ncn(C[C@H]3CCC[C@]4(C3)CN(c3ccccc3)C(=O)O4)c2c1 | 820 |  |  |  |  |  |  | 4.6 |  | 
8 | CCOc1cccc(N2C[C@@]3(CCC[C@H](Cn4cnc5ccc(C#N)cc54)C3)OC2=O)c1 | 74 |  |  |  |  |  |  | 5 |  | 
9 | CC(C)(C)CN1C[C@@]2(CCC[C@H](C(C)(C)n3cnc4ccc(C#N)cc43)C2)OC1=O (racemic) | > 25000 | 0.3 | 70 | 1.1 | 8 |  |  | 4.6 |  | 
10 | CC(C)(C)N1C[C@@]2(CCC[C@H](Cn3cnc4ccc(C#N)cc43)C2)OC1=O (racemic) | 5200 | 0.5 | 55 | 1.8 | 44 |  |  | 4 |  | 
11 | COc1cnc(N2C[C@@]3(CCC[C@](C)(Cn4cnc5ccc(C#N)cc54)C3)OC2=O)cn1 | 14 |  |  |  |  |  | 400 | 4.8 |  | 
12 | C[C@]1(Cn2cnc3ccc(C#N)cc32)CCC[C@@]2(CN(c3cnc(C4CC4)cn3)C(=O)O2)C1 | 1.5 |  |  |  |  |  | 340 | 5.3 |  | 
13 | CCOc1cccc(N2C[C@@]3(CCC[C@](C)(Cn4cnc5ccc(C#N)cc54)C3)OC2=O)c1 | 1.6 |  |  |  |  |  |  | 5.3 |  | 
14 | Cc1ccccc1N1C[C@@]2(CCC[C@H](Cn3cnc4ccc(C#N)cc43)C2)OC1=O | 310 |  |  |  |  |  |  | 4.6 |  | 
15 | Cc1ccccc1N1C[C@@]2(CCC[C@](C)(Cn3cnc4ccc(C#N)cc43)C2)OC1=O | 1.7 |  |  |  |  |  |  | 4.8 |  | 
16 | CC(C)(C)CN1C[C@@]2(CCC[C@H](Cn3cnc4ccc(C#N)cc43)C2)OC1=O | 16 | 0.7 | 64 | 2.6 | 63 | 0.32 | 200 | 4.5 | 5.5 | 8.1
17 | CC(C)(O)c1cnc(N2C[C@@]3(CCC[C@](C)(Cn4cnc5ccc(C#N)cc54)C3)OC2=O)cn1 [GSK2798745] | 1.8 | 4.9 | 6.5 | 1.9 | 59 | 0.082 | 79 | 4 | 1.6 | 
18 | C[C@]1(Cn2cnc3ccc(C#N)cc32)CCC[C@@]2(CN(c3cccc(Cl)c3)C(=O)O2)C1 | 48 |  |  |  |  |  |  | 5.7 |  | 
19 | N#Cc1ccc2ncn(C[C@H]3CCC[C@]4(C3)CN(c3cccc(Cl)c3)C(=O)O4)c2c1 | 240 |  |  |  |  |  |  | 5.3 |  | 
20 | CC(C)(C)CN1C[C@@]2(CCC[C@](C)(Cn3cnc4ccc(C#N)cc43)C2)OC1=O | 0.5 | 0.5 | 63 | 2.1 | 32 | 0.14 | 450 | 4.6 |  | 
21 | C[C@]1(Cn2cnc3ccc(C#N)cc32)CCC[C@@]2(CN(c3ccccc3)C(=O)O2)C1 | 49 |  |  |  |  |  |  |  |  | 
22 | CCOc1ccc(N2C[C@@]3(CCC[C@](C)(Cn4cnc5ccc(C#N)cc54)C3)OC2=O)cn1 | 3.1 | 1.6 | 24 |  |  | 0.031 |  |  |  | 
23 | CC(C)(C)c1cnc(N2C[C@@]3(CCC[C@](C)(Cn4cnc5ccc(C#N)cc54)C3)OC2=O)cn1 | 1.2 |  |  |  |  |  |  | 6.3 |  | 
24 | COc1ccccc1N1C[C@@]2(CCC[C@H](Cn3cnc4ccc(C#N)cc43)C2)OC1=O | 340 |  |  |  |  |  |  | 4.2 |  | 
25 | N#Cc1ccc2ncn(C[C@H]3CCC[C@]4(C3)CN(c3ccc(F)cc3)C(=O)O4)c2c1 (racemic) | 1900 | 3.1 | 23 | 4 | 100 | 0.065 | 350 | 4.5 |  | 61
26 | N#Cc1ccc2ncn(C[C@H]3CCC[C@]4(C3)CN(c3ccccc3F)C(=O)O4)c2c1 | 540 |  |  |  |  |  |  | 4.2 |  | 
27 | C[C@]1(Cn2cnc3ccc(C#N)cc32)CCC[C@@]2(CN(c3ccccc3F)C(=O)O2)C1 | 5.2 |  |  |  |  |  |  | 4.9 |  | 
28 | N#Cc1ccc2ncn(C[C@H]3CCC[C@]4(C3)CN(c3ccccc3Cl)C(=O)O4)c2c1 | 63 |  |  |  |  |  |  | 4.3 |  | 
29 | C[C@]1(Cn2cnc3ccc(C#N)cc32)CCC[C@@]2(CN(c3ccc(F)cc3)C(=O)O2)C1 | 96 | 2.8 | 39 | 6.5 | 100 |  |  | 4.9 |  | 
30 | C[C@]1(Cn2cnc3ccc(C#N)cc32)CCC[C@@]2(CN(c3ccccc3Cl)C(=O)O2)C1 | 2.5 |  |  |  |  |  |  | 4.8 |  | 
